Results: patent US20020177616A1, “Use of chromans” (priority 2001, published 2002)
Where a name gives a salt, the structure may show the parent alone.

How the values were obtained:
[1] = target: T1, human recombinant 5-HT1A receptors (Homo sapiens, UniProt P08908); assay: GTP gamma[S-35] binding, agonistic action on human recombinant 5-HT1A receptors; format: biochemical; conditions: for EC50: GTP gamma[S-35] binding, human recombinant 5-HT1A receptors
T1 sequence (P08908 1-422): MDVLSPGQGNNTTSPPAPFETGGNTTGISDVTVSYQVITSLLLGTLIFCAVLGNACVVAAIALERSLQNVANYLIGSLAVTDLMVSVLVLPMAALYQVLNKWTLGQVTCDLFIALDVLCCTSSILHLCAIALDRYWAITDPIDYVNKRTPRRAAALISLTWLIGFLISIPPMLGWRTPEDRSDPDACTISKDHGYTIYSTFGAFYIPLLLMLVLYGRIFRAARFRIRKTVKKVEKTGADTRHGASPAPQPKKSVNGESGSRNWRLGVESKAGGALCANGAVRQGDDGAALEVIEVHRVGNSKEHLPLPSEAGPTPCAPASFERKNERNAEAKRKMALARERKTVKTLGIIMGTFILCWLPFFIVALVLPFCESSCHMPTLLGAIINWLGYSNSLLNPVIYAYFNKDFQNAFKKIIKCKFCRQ
Procedure: Determination of the Avonistic action on Human Recombinant 5-HT1A Receptors
Signal transduction studies were carried out on human recombinant 5-HT1A receptors using the guanosine 5′-O-(3-[S-35]thio)-triphosphate (GTP gamma[S-35]) binding technique (modified according to Elliott and Reynolds Europ J. Pharmacol 1999, 386, 313-315 and Sim et al. J. Neurosci 1996, 16, 8057-8066).

MPTP-monkey model = assay: chronic MPTP monkey model of Parkinson's disease; format: in vivo, rhesus monkeys (Macaca fascicularis); design: key to Slowing of the development of Parkinsonism: 0 = No slowing of the development of parkinsonism; + = Statistically significant delay in the attainment of Score 8; conditions: for Symptomatology on the last 3 days: MPTP only group = 100%

Row | SMILES | EC50 [1] [nM] | neuroprotective activity after oral administration (MPTP-monkey model; 2 mg/kg p.o. bid) | symptomatic action (MPTP-monkey model; 2 mg/kg p.o. bid) | Slowing of the development of Parkinsonism (MPTP-monkey model; MPTP 0.2 mg/kg i.v. daily + 2.0 mg/kg p.o. bid) | Symptomatology on the last 3 days (MPTP-monkey model; MPTP + 2.0 mg/kg p.o. bid) [%] | potency relative to repinotan hydrochloride ([1]; 5-HT1A agonism, from EC50 values) | neuroprotective activity after oral administration (MPTP-monkey model; 1 mg/kg p.o. bid) | reduction of the degree of severity of the symptoms (symptomatic action) compared with control (MPTP-monkey model; 1 mg/kg p.o. bid) [%] | Slowing of the development of Parkinsonism (MPTP-monkey model; MPTP 0.2 mg/kg i.v. daily + 1.0 mg/kg p.o. bid) | Symptomatology on the last 3 days (MPTP-monkey model; MPTP + 1.0 mg/kg p.o. bid) [%]
1 | Cl.O=C1c2ccccc2S(=O)(=O)N1CCCCNC[C@H]1CCc2ccccc2O1 [Repinotan hydrochloride, 2-[4-({[(2R)-chroman-2-yl]methyl}amino)butyl]-1,2-benzisothiazol-3(2H)-one 1,1-dioxide hydrochloride, reference compound] | 0.51 | slowed the development of the parkinsonism symptoms | not observed | + | 100 |  |  |  |  | 
2 | CC(C)Oc1cccc2c1O[C@@H](CNCCCCN1C(=O)c3ccccc3S1(=O)=O)CC2 [Example 11, 2-[4-({[(2R)-8-isopropoxy-chroman-2-yl]methyl}amino)butyl]-1,2-benzisothiazol-3(2H)-one 1,1-dioxide hydrochloride] | 0.19 |  |  |  |  | approximately twice | slowed the development of the parkinsonism symptoms | 22 | + | 78
